Assay results taken from publication PMC11358882, “Neuroprotective Effects of Phenolic Constituents from Drynariae Rhizoma” (Pharmaceuticals, 2024).
Where “and” joins values, the source holds several entries; their conditions need not be identical. Equal entries are not always repeated. Where two headings read alike, the source gives them in different places.

Key:
AChE from electric eel = target: T1, AChE from electric eel (Electrophorus electricus, UniProt O42275); test: biochemical; format: biochemical
T1 construct: purchased Sigma-Aldrich Co., St. Louis, USA
Experimental: (§1) The AChE- and BChE-inhibitory, MTT, and Th T assays were analyzed using a UV–visible (VIS) spectrophotometer (Biotek, EPOCH2, Winooski, VT, USA), ensuring accurate measurements. For BACE1- and MAO-B-inhibitory assays, a multimode microplate reader (SpectraMax M3, Molecular Devices, San Jose, CA, USA) was employed, providing precise readings. Analytical-grade DMSO from DEAJUNG Chemical, Korea, served as a solvent in the bioassays. Reagents and solvents, including AChE from electric eel, acetylthiocholine iodide (ATCh), BChE from equine serum, S-butyrylthiocholine iodide (BTCh), 5,5′-dithiobis [2-nitrobenzoic acid] […] Additionally, the BACE1-inhibitory assay utilized the BACE1 (β-secretase) FRET assay kit from PanVera® Corporation, Madison, USA, while the MAO-B-inhibitory assay employed the MAO-B Inhibitor Screening Kit (Fluorometric) ab284511 from Abcam plc Co., Cambridge, UK.
(§2) The inhibitory activities against cholinesterases (AChE and BChE) were evaluated using a spectrophotometric method previously developed by Ellman et al.. Specifically, ATCh and BTCh were used as substrates to measure the inhibitory effects on AChE and BChE, respectively. The assay mixture consisted of 140 μL of 0.1 M sodium phosphate buffer at pH 7.8, 20 μL of a 0.38 U/mL solution of either AChE or BChE, and 20 μL of the test sample solution. This mixture was thoroughly mixed and then incubated at room temperature for 15 min. […] Reactions were initiated by adding 10 μL of 0.5 mM DTNB and 10 μL of either 0.6 mM ATCh or BTCh. ChE-inhibitory activity was monitored by measuring the formation of the yellow 5-thio-2-nitrobenzoate anion at 412 nm over 15 min (Epoch, BioTek, Winooski, VT, USA), resulting from the reaction of DTNB and thiocholine released from ATCh or BTCh. All reactions were conducted in 96-well microplates and performed in triplicate. The percentage of inhibition (%) was determined using the following formula: inhibition (%)={(Ac−As)/Ac}×100 , where Ac represents the enzyme activity in the absence of the test sample, and As represents the enzyme activity in the presence of the test sample. The ChE-inhibitory activities of each sample were quantified in terms of IC50, which was calculated from the log–dose inhibition curve.

BChE from equine serum = target: T2, BChE from equine serum (Equus caballus, UniProt P81908); test: biochemical; format: biochemical
T2 construct: BChE from equine serum; purchased Sigma-Aldrich Co., St. Louis, USA; host or cells: equine serum
Experimental: as §1, §2

BACE1 = target: T3, BACE1 (Homo sapiens, UniProt P56817); test: BACE1 (β-secretase) FRET inhibitory assay; format: biochemical
T3 construct: purchased PanVera Corporation, Madison, WI, USA P2985
Experimental: The BACE1 inhibition assay was conducted using the BACE1 (β-secretase) FRET Assay Kit, Red Protocol, part number P2985 (PanVera® Corporation, Madison, WI, USA), following the manufacturer’s recommended protocol with minor modifications. The assay mixture consisted of 10 μL of BACE1 (1.0 U/mL), 10 μL of substrate (750 nM Rh-[…]-Quencher in 50 mM ammonium bicarbonate), the assay buffer (50 mM sodium acetate, pH 4.5), and 10 μL of the test samples. […] The reaction mixture was incubated for 60 min at room temperature in darkness. Before measurement, a stop solution (2.5 M sodium acetate) was added to halt the reaction. BACE1 enzyme activity was assessed by monitoring the proteolysis of two fluorophores (Rh-[…]-Quencher), forming the fluorescent donor (Rh-EVNL) with increased fluorescence wavelengths at 530–545 nm (excitation) and 570–590 nm (emission), respectively. All reactions were recorded in black 96-well microplates and performed in triplicate. The percentage of inhibition (%) was calculated using the following formula: inhibition (%)=[1−(S60−S0)/(C60−C0)]×100 , where C60 represents the fluorescence of the control after incubation, C0 represents the initial fluorescence of the control, S60 represents the fluorescence of the tested sample after incubation, and S0 represents the initial fluorescence of the tested sample. The BACE1-inhibitory activities of each sample were quantified in terms of IC50, which was determined from the log–dose inhibition curve.

MAO-B = target: T4, MAO-B (Homo sapiens, UniProt P27338); test: MAO-B inhibitor screening kit (fluorometric) assay; format: biochemical; conditions: isolated compounds; mean ± SD, n = 3; ND = no detection using test concentration
T4 construct: purchased Abcam plc, Cambridge, UK ab284511
T4 sequence (P27338 1-520): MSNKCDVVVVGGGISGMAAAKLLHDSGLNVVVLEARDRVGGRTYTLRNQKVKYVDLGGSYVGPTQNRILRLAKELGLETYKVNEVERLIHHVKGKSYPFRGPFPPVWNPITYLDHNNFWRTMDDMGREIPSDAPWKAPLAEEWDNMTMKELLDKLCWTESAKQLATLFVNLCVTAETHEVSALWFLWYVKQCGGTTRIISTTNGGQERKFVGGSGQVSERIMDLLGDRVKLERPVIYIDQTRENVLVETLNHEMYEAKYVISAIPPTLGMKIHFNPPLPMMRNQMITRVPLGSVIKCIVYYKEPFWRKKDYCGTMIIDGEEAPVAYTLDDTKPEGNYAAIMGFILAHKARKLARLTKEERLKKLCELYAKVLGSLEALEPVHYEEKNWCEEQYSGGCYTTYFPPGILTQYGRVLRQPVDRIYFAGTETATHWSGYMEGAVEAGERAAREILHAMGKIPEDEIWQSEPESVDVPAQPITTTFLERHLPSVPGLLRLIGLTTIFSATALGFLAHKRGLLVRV
Experimental: The MAO-B-inhibition assay was conducted using the MAO-B Inhibitor Screening Kit (Fluorometric) ab284511 (Abcam plc, Cambridge, UK), following the manufacturer’s recommended protocol with minor modifications. The enzyme solution (50 µL) and the test sample (10 µL) were adjusted as per the manual instructions. […] After mixing, samples and enzymes were incubated at 25 °C for 10 min. Subsequently, 40 μL of MAO-B substrate (comprising MAO-B assay buffer, MAO substrate, developer, and OxiRed probe) was added, followed by further incubation at 25 °C for 5 min. Fluorescence was measured using enzyme-linked immunosorbent assay within 40 min with dynamic fluorescence (Ex/Em = 535/587 nm). All reactions were recorded in black 96-well microplates and performed in triplicate. The slope for all samples, including the enzyme control (EC), was calculated by dividing the net ΔRFU (RFU2–RFU1) values by the time Δt (T2 − T1). The % relative inhibition was computed as follows: % relative inhibition=(slope of EC−slope of S)/slope of EC×100 . The MAO-B-inhibitory activities of each sample were quantified in terms of IC50, as determined from the log–dose inhibition curve.

[1] = test system: cultured cortical neurons; set-up: method as in PMID 26299900; conditions: cited from earlier work
sAPPβ = test: Western blot of sAPPβ levels in APP-CHO cells; format: cell-based, Chinese hamster; conditions: 24 h; for reduction of sAPPβ levels compared to DMSO-treated controls: 1.0 μM
Experimental: (§3) APP-CHO cells were seeded in six-well plates at a density of 6 × 10^5 cells/1000 μL of medium per well and incubated at 37 °C overnight for cell attachment. Then, the medium was replaced with FBS-free RPMI 1640 for 1 h, followed by treatment with test samples at 37 °C. After 24 h, the cells were washed with PBS and lysed in Laemmli sample buffer. The collected cell lysates were boiled at 100 °C for 10 min. For Western blot analysis, 20 μg of proteins were separated by 7.5% SDS-PAGE and transferred to a PVDF membrane using Trans-Blot® Turbo TM (Bio-Rad, Hercules, CA, USA). The membrane was blocked with 5% skim milk in PBS for 1 h and incubated with primary antibodies overnight at 4 °C. The primary antibodies used were sAPPβ antibody, BACE1 antibody, and α-tubulin antibody diluted at 1:1000, 1:1000, and 1:25,000, respectively. After washing with PBS-T (0.1% Tween 20 in PBS) three times for 10 min each, secondary antibodies, diluted to 1:2500, were incubated for 1 h. Protein detection was performed using ECL solution reagent and protein visualization (ChemiDoc^TM XRS+., Bio-Rad, Hercules, CA, USA). The signal intensity of the bands was quantified and normalized to the signal intensity of the α-tubulin band. Results were expressed as a percentage of DMSO-treated control.

β-secretase = test: Western blot of β-secretase levels in APP-CHO cells; format: cell-based, Chinese hamster; conditions: 24 h; for reduction of β-secretase levels compared to DMSO-treated controls: 1.0 μM
Experimental: as §3

[2] = isolated compounds, mean ± SD, n = 3, ND = no detection using test concentration, read-out: IC50 AChE
[3] = isolated compounds, mean ± SD, n = 3, ND = no detection using test concentration, read-out: IC50 BChE
[4] = isolated compounds, mean ± SD, n = 3, read-out: IC50 BACE1
[5] = isolated compounds, mean ± SD, n = 3, ND = no detection using test concentration

T1 sequence (O42275 24-633): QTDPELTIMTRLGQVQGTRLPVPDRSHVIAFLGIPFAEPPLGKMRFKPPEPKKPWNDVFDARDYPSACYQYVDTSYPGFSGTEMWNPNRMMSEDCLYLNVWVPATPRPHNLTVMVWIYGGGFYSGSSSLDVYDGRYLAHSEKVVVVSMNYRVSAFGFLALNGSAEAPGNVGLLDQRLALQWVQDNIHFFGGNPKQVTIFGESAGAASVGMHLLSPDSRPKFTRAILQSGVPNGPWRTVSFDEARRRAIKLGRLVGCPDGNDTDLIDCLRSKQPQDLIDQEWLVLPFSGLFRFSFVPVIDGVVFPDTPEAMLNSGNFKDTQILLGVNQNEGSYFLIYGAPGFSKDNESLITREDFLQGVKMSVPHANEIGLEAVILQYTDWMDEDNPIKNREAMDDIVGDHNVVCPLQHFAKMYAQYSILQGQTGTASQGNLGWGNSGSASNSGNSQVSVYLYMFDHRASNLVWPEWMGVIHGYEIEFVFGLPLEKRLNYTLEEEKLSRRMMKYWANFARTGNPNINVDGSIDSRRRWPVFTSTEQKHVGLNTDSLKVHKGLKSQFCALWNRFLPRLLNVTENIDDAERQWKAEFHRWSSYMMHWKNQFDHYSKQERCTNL
T2 sequence (P81908 whole entry): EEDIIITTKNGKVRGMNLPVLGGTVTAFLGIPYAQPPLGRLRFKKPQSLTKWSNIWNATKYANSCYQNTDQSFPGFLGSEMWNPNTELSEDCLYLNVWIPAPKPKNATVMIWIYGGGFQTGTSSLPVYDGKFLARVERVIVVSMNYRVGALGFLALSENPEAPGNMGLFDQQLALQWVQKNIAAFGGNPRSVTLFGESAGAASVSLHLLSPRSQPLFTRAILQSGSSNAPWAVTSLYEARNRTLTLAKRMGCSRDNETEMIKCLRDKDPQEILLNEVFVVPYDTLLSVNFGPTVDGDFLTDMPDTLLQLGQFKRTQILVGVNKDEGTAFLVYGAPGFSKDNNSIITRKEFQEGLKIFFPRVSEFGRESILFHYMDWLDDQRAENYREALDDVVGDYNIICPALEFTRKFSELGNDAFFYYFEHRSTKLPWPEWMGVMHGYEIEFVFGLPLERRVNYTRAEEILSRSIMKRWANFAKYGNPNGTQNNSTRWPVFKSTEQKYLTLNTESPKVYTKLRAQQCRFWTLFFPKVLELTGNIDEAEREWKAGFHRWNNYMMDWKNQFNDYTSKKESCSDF
T3 sequence (P56817 46-501): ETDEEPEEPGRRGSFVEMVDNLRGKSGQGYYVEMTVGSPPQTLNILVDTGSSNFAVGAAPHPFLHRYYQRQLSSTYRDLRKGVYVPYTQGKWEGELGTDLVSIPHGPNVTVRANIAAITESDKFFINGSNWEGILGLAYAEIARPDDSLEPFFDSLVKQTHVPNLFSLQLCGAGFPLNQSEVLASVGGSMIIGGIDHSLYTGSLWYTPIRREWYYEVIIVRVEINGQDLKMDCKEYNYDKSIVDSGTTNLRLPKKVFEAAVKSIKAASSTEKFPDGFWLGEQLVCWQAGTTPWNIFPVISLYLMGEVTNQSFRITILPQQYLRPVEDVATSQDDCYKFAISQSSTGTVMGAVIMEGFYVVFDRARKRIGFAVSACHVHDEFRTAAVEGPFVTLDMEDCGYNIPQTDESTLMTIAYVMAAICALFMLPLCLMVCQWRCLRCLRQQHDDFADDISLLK

C[C@@H]1O[C@@H](O[C@H]2[C@H](Oc3cc(O)c4c(=O)ccoc4c3)O[C@H](CO)[C@@H](O)[C@@H]2O)[C@H](O)[C@H](O)[C@H]1O [Compound 5, 5,7-dihydroxychromone-7-O-neohesperidoside]
IC50 (AChE from electric eel; [2]): > 1000 µM
IC50 (BChE from equine serum; [3]): 38.8 ± 0.71 µM
IC50 (BACE1; [4]): > 1000 µM

COc1ccc2cc3[n+](cc2c1OC)CCc1cc2c(cc1-3)OCO2 [Berberine, berberine, reference compound]
IC50 (AChE from electric eel): 0.119 µM

COc1cc(/C=C/C(=O)O)ccc1O[C@@H]1O[C@H](CO)[C@@H](O)[C@H](O)[C@H]1O [Compound 3, lavandoside]
IC50 AChE (AChE from electric eel; [5]): did not demonstrate cholinesterase-inhibitory activity
IC50 BChE (BChE from equine serum; [5]): did not demonstrate cholinesterase-inhibitory activity
IC50 (BACE1; [4]): 235 ± 6.86 µM
IC50 (MAO-B): 155 ± 7.18 µM

C[C@@H]1O[C@@H](O[C@H]2[C@H](Oc3cc(O)c4c(c3)O[C@H](c3ccc(O)c(O)c3)CC4=O)O[C@H](CO)[C@@H](O)[C@@H]2O)[C@H](O)[C@H](O)[C@H]1O [Compound 8, neoeriocitrin]
IC50 (AChE from electric eel): 31.65 ± 0.14 µM
IC50 (BChE from equine serum): 30.04 ± 0.23 µM
IC50 (BACE1): 13.7 ± 0.14 µM
IC50 (MAO-B): 2.64 ± 0.016 µM
axonal regrowth effect on Aβ25–35-induced atrophy ([1]; 1 and 10 μM): significant axonal regrowth effects

O=C(O)/C=C/c1ccc(O[C@@H]2O[C@H](CO)[C@@H](O)[C@H](O)[C@H]2O)c(O)c1 [Compound 2, caffeic acid 4-O-β-D-glucopyranoside]
IC50 (AChE from electric eel; [2]): 14.77 ± 0.07 µM
IC50 (BChE from equine serum; [3]): 488 ± 10.1 µM
IC50 (BACE1; [4]): 45 ± 0.48 µM
IC50 (MAO-B): 401.3 ± 2.66 µM
reduction of sAPPβ expression levels (sAPPβ; 0.5 μM): 50%
reduction of β-secretase expression levels (β-secretase; 0.5 μM): 40%
axonal regrowth effect on Aβ25–35-induced atrophy ([1]; 10 μM): significant axonal regrowth effects

COc1ccc([C@@H]2CC(=O)c3c(O)cc(O[C@@H]4O[C@H](CO[C@@H]5O[C@@H](C)[C@H](O)[C@@H](O)[C@H]5O)[C@@H](O)[C@H](O)[C@H]4O)cc3O2)cc1O [Compound 10, hesperidin]
IC50 (AChE from electric eel): 57.7 ± 5.96 µM
IC50 (BChE from equine serum): 331.77 ± 0.14 µM
IC50 (BACE1; [4]): 55.72 ± 0.17 µM
IC50 (MAO-B): 98.77 ± 0.14 µM
reduction of sAPPβ levels compared to DMSO-treated controls (sAPPβ): 30%
reduction of β-secretase levels compared to DMSO-treated controls (β-secretase): 30%

COc1cc(/C=C/C(=O)O)cc(OC)c1O[C@@H]1O[C@H](CO)[C@@H](O)[C@H](O)[C@H]1O [Compound 4, trans-p-sinapoyl-β-D-glucopyranoside]
IC50 (BChE from equine serum; [3]): 30.6 ± 0.38 µM
IC50 (BACE1; [4]): 147.4 ± 0.74 µM
IC50 (MAO-B): 600.9 ± 3.72 µM

O=C(O)/C=C/c1ccc(O[C@@H]2O[C@H](CO)[C@@H](O)[C@H](O)[C@H]2O)cc1 [Compound 1, coumaric acid 4-O-β-D-glucopyranoside]
IC50 (AChE from electric eel; [2]): 33.4 ± 0.42 µM
IC50 (BChE from equine serum; [3]): 53.8 ± 1.15 µM
IC50 (BACE1; [4]): > 1000 µM
IC50 (MAO-B): > 1000 µM

C[C@@H]1O[C@@H](O[C@H]2[C@H](Oc3cc(O)c4c(c3)O[C@H](c3ccc(O)cc3)CC4=O)O[C@H](CO)[C@@H](O)[C@@H]2O)[C@H](O)[C@H](O)[C@H]1O [Compound 9, naringin]
IC50 (AChE from electric eel): 124 ± 35.3 µM
IC50 (BChE from equine serum): 252 ± 12.3 µM
IC50 (BACE1; [4]): 64.95 ± 0.17 µM
IC50 (MAO-B): 51.26 ± 0.14 µM
reduction of sAPPβ levels compared to DMSO-treated controls (sAPPβ): 30%
reduction of β-secretase levels compared to DMSO-treated controls (β-secretase): 40% and 30%
